The values below are quoted from earlier work in paper PMC4942611, “Promising Tools in Prostate Cancer Research: Selective Non-Steroidal Cytochrome P450 17A1 Inhibitors” (Scientific Reports, 2016).

Where two headings read alike, the source gives them in different places.

Usually IC50 stands for the concentration that gives 50% inhibition.

This data set has as its system CYP17A1. More on the design: method as in PMID 24775307. The following applies: cited from earlier work.

Take `CC(C)[C@](O)(c1ccc2cc(OC(F)F)c(OC(F)F)cc2c1)c1c[nH]nn1` [VT-464]: the IC50 is, setting by setting: (read-out: IC50 hydroxylase step) 670 nM; (read-out: IC50 lyase step) 69 nM.
